Data published in patent US10342766B2, “6-shogaol derivatives and activities thereof” (North Carolina Agricultural and Technical State University, priority 2017, dated 2019).
Values joined by “and” are separate entries in the source; they are usually repeats but may differ in a detail not shown here. Equal entries are not always repeated.

What was measured:
Nrf2 = Nrf2 reporter activity by Tg(gstp1:GFP) fluorescence in transgenic zebrafish embryos; format: in vivo; settings: 24-hour treatment from 1 dpf to 2 dpf; for Ratio/CTL, Tg(gstp1:GFP) fluorescence signal: 5 μM, olfactory epithelia, relative to vehicle (DMSO = 1.00)
Procedure: Zebrafish AB transgenic strains Tg(gstp1:GFP) were maintained in a Pentair Aquatic Ecosystem (Apopka, Fla., United States of America) fish housing unit with 14 h light/10 h dark cycle (see Tsujita, T., Li, L., Nakajima, H., Iwamoto, N., Nakajima-Takagi, Y., Ohashi, K., Kawakami, K., Kumagai, Y., Freeman, B. A., Yamamoto, M., and Kobayashi, M. (2011) “Nitro-fatty acids and cyclopentenone prostaglandins share strategies to activate the Keap1-Nrf2 system: a study using green fluorescent protein transgenic zebrafish.” Genes Cells 16, 46-57). The fish embryos were maintained at 28.5° C. in 0.3× Danieau's solution (19.3 mM NaCl, 0.23 mM KCl, 0.13 mM MgSO4, 0.2 mM Ca(NO3)2, 1.7 mM HEPES, pH 7.0) containing 30 μg/ml phenylthiourea (PTU) to inhibit pigmentation. Tg(gstp1:GFP) cross with AB wild-type strain fluorescence embryos were used for the experiment. Zebrafish embryos were washed, dechorionated and anaesthetized before observations, and fluorescence imaging for analysis.
Transgenic zebrafish embryos at 1 day-post-fertilization (dpf) were dechorionated and placed in Petri dishes containing different chemicals diluted in 0.3× Danieau's solution containing PTU. The chemical stock was dissolved in DMSO at 5 mM concentration.
An Olympus MVX10 Fluorescence Macroscope (Olympus, Center Valley, Pa., United States of America) equipped with a Hamamatsu C9300-221 high-speed digital CCD camera (Hamamatsu City, Japan) was used for fluorescence microscopy. Tg(gstp1:GFP) fluorescent embryos were anaesthetized in tricaine and imaged at 2 dpf. MetaMorph Basic software (Olympus, Center Valley, Pa., United States of America) was used for image acquisition and analysis.
Quantification of Nrf2 Reporter Activity by Tg(gstp1:
GFP) Fluoresence in Zebrafish Model. The fluorescence intensity of the olfactory neural epithelia was quantitated using MetaMorph Basic software. In brief, GFP expression in the olfactory regions of Tg(gstp1:GFP) embryos treated with various chemicals was measured after 24-hour treatment from 1 dpf to 2 dpf. The GFP induction was detectable by fluorescence signal at the area of the olfactory epithelia in the anterior of the head region, the intensity was measured using an area of a circle of 60 pixel diameter of the fluorescence olfactory epithelia subtracted by a background non-fluorescence area next to the zebrafish embryo. Both the left and right olfactory epithelia were measured to give an average fluorescence value. The values are an average of measurements from at least 10 embryos.

[1] = Formation of cysteine conjugates in mice (urine, LC/MS); format: in vivo, mouse; settings: oral gavage 200 mg/kg, urine collected in 24 h
Procedure: LC/MS analysis was carried out with a Thermo-Finnigan Spectra System, which consisted of an Accela high speed MS pump, an Accela refrigerated autosampler, and an LCQ Fleet ion trap mass detector (Thermo Electron, San Jose, Calif., United States of America) incorporated with an electrospray ionization (ESI) interface. A Gemini-NX C18 column (150 mm×4.6 mm i.d., 5 μm; Phenomenex, Torrance, Calif., United States of America) was used for separation at a flow rate of 0.3 mL/min. The column was eluted with 100% A (5% aqueous methanol with 0.2% formic acid) for 1 min, followed by linear increases in B (95% aqueous methanol with 0.2% formic acid) to 55% from 1 to 4 min, to 85% from 4 to 25 min, then to 100% B from 25 to 30 min, and then with 100% B from 30 to 35 min. The column was then re-equilibrated with 100% A for 5 min. The LC eluent was introduced into the ESI interface. The positive ion polarity mode was set for the ESI source with the voltage on the ESI interface maintained at approximately 4.6 kV. Nitrogen gas was used as the sheath gas and auxiliary gas. […] The mass range was measured from 100 to 800 m/z. […]
Enzymatic deconjugation of mouse urine was performed as described previously with slight modifications. […] The resulting suspension was centrifuged at 17,000 g for 5 min, and 10 μL of supernatant was analyzed directly by LC/MS.

[2] = Biotransformation in zebrafish embryos (cysteine conjugates, LC/MS); format: in vivo; settings: 5 μM in incubation medium, 8 hpf to 24 hpf
Procedure: Fifty zebrafish embryos at the 8 hour-post-fertilization (hpf) stage were incubated at 28.5° C. in 0.3× Danieau's solution (19.3 mM NaCl, 0.23 mM KCl, 0.13 mM MgSO4, 0.2 mM Ca(NO3)2, 1.7 mM HEPES, pH 7.0) with or without 5 μM 18 and 25-27, respectively. At 24 hpf, embryos were dechorionated manually and the chorions were carefully removed one by one from the culture medium. The zebrafish embryos were harvested and kept at −80° C. till analyzed by LC/MS.
200 μL Sodium acetate buffer solution (pH 5.0) was added to 50 zebrafish embryos. Samples were homogenized for 90 s by an Omni Bead Ruptor Homogenizer (Kennesaw, Ga., United States of America). 10 μL 10% ascorbic acid and 300 μL sodium acetate buffer were added to the homogenates. The mixture was incubated in the presence of β-glucuronidase (250 U) and sulfatase (3 U) at 37° C. for 45 min, and then 600 μL MeOH with 1% acetic acid was added. The resulting mixture was vortexed for 30 s and then centrifuged at 17000 g for 10 min. The supernatant was removed and evaporated under a gentle stream of nitrogen. The residue was reconstituted in 150 μL 90% MeOH with 0.2% acetic acid (AA), and 10 μL was analyzed directly by LC/MS.
LC/MS analysis was carried out with a Thermo-Finnigan Spectra System, which consisted of an Accela high speed MS pump, an Accela refrigerated autosampler, and an LCQ Fleet ion trap mass detector (Thermo Electron, San Jose, Calif., United States of America) incorporated with an electrospray ionization (ESI) interface. A Gemini-NX C18 column (150 mm×4.6 mm i.d., 5 μm; Phenomenex, Torrance, Calif., United States of America) was used for separation at a flow rate of 0.3 mL/min. The column was eluted with 100% A (5% aqueous methanol with 0.2% formic acid) for 1 min, followed by linear increases in B (95% aqueous methanol with 0.2% formic acid) to 55% from 1 to 4 min, to 85% from 4 to 25 min, then to 100% B from 25 to 30 min, and then with 100% B from 30 to 35 min. The column was then re-equilibrated with 100% A for 5 min. The LC eluent was introduced into the ESI interface. The positive ion polarity mode was set for the ESI source with the voltage on the ESI interface maintained at approximately 4.6 kV. Nitrogen gas was used as the sheath gas and auxiliary gas. Optimized source parameters, including capillary temperature (260° C.), sheath gas flow rate (31 arbitrary units), auxiliary gas flow rate (16 units), tube lens (34 V), and capillary voltage 9 V, were tuned using authentic samples. The collision-induced dissociation (CID) was conducted with an isolation width 2 Da and normalized collision energy of 35 for MS^2. The mass range was measured from 100 to 800 m/z. Data acquisition was performed with Xcalibur version 2.0 (Thermo Electron, San Jose, Calif., United States of America).

SMILES	Ratio/CTL, Tg(gstp1:GFP) fluorescence signal (Nrf2)	further results
CCCCC/C=C/C(=O)CCc1ccc(O)c(OC)c1 [Compound 1, [6]-shogaol, reference compound]	2.40 and 2.40 ± 0.54	Ratio/CTL, Tg(gstp1:GFP) fluorescence signal (Nrf2; listed as 6S): 2.40
CCCCCCC/C=C/C(=O)CCc1ccc(O)c(OC)c1 [Compound 2, reference compound]	1.67 ± 0.55	Ratio/CTL, Tg(gstp1:GFP) fluorescence signal (Nrf2; listed as 8S): 1.67
CCCCCCCCC/C=C/C(=O)CCc1ccc(O)c(OC)c1 [Compound 3, reference compound]	1.53 ± 0.53	Ratio/CTL, Tg(gstp1:GFP) fluorescence signal (Nrf2; listed as 10S): 1.53
CCCCCC=CC(O)CCc1ccc(O)c(OC)c1 (centres unmarked) [Compound 4]	1.13 and 1.13 ± 0.21	
CCCCCCCC(=O)CCc1ccc(O)c(OC)c1 [Compound 5]	1.27 and 1.27 ± 0.29	
CCCCCC(CC(=O)CCc1ccc(O)c(OC)c1)SCC(N)C(=O)O (centres unmarked) [Compound 6]	1.06 ± 0.20	
CCCCCC(CC(=O)CCc1ccc(O)c(OC)c1)SCC(NC(C)=O)C(=O)O (centres unmarked) [Compound 7]	1.04 ± 0.05	
CCCCCC(CC(=O)CCc1ccc(O)c(OC)c1)SC (centres unmarked) [Compound 8]	1.16 ± 0.47	
CCCCCC(CC(=O)CCc1ccc(O)c(OC)c1)OC (centres unmarked) [Compound 10]	0.96 ± 0.24	
CCCCC[C@H](O)CC(=O)CCc1ccc(O)c(OC)c1 [Compound 11, [6]-gingerol, reference compound]	1.87 and 1.87 ± 0.51	
CCCCCCC[C@H](O)CC(=O)CCc1ccc(O)c(OC)c1 [Compound 12, reference compound]	1.65 and 1.65 ± 0.29	
CCCCCCCCC[C@H](O)CC(=O)CCc1ccc(O)c(OC)c1 [Compound 13, reference compound]	1.29 and 1.29 ± 0.40	
CCCCCCCC(O)CCc1ccc(O)c(OC)c1 (centres unmarked) [Compound 14]	0.96 ± 0.21	Nrf2 activation in Tg(gstp1:GFP) zebrafish embryos, in words (Nrf2): no effect at all
CCCCCC(CC(O)CCc1ccc(O)c(OC)c1)SCC(N)C(=O)O (centres unmarked) [Compound 15]	1.08 ± 0.65	
CCCCCC(CC(O)CCc1ccc(O)c(OC)c1)SCC(NC(C)=O)C(=O)O (centres unmarked) [Compound 16]	0.78 ± 0.12	
CCCCCC(CC(O)CCc1ccc(O)c(OC)c1)SC (centres unmarked) [Compound 17]	0.72 ± 0.14	
CCCCC/C=C/C(=O)/C=C/c1ccc(O)c(OC)c1 [Compound 18]	5.67 and 5.67 ± 0.59	Cysteine conjugates found in mouse urine [1]: conjugate 35 was predominantly present; Cysteine conjugates found in zebrafish embryos [2]: conjugate 35 was predominantly present
CCCCCCCC(=O)/C=C/c1ccc(O)c(OC)c1 [Compound 19]	3.29 and 3.29 ± 0.35	
CCCCC/C=C/C(=O)/C=C/c1cc(O)c(O)c(OC)c1 [Compound 20]	1.26 and 1.26 ± 0.14	
CCCCC/C=C/C(=O)/C=C/c1cc(OC)c(O)c(C(F)(F)F)c1 [Compound 21]	2.18 and 2.18 ± 0.53	
CCCCC/C=C/C(=O)/C=C/c1cccc(C(F)(F)F)c1 [Compound 22]	1.28 and 1.28 ± 0.10	
CCCCC/C=C/C(=O)/C=C/c1cccc(C(F)(F)F)c1F [Compound 23]	1.63 and 1.63 ± 0.17	
CCCCC/C=C/C(=O)/C=C/c1ccccc1C(F)(F)F [Compound 24]	1.55 and 1.55 ± 0.67	
CCCCCCCC(=O)CCc1ccc(O)c(O)c1 [Compound 25]	4.32 and 4.32 ± 0.50	Cysteine conjugates found in zebrafish embryos [2]: conjugates 37 and 37b were exclusively identified
C[S+]([O-])CCCCN=C=S (centres unmarked) [SFN, sulforaphane, reference compound]	2.03 and 2.03 ± 0.49	
